We go through 19 compounds from ChEMBL document CHEMBL1857833, “Screening and optimization of specific chemical series against human African Trypanosomiasis (HAT)”.

SMILES strings stand for the structures. ≈ marks a conversion by molar mass, not a printed value. Where “and” joins values, the source holds several entries; their conditions need not be identical. Equal entries are not always repeated.

A short description of data set [1]: DNDI: Cytotoxicity against L929 mouse fibroblasts, CYTO-SP, 24 hour. The class given is toxicity, cell-based. Particulars: mouse, L929 mouse fibroblasts.
A further data set is described as follows: in vitro. As to conditions: mouse, liver microsomes, t (1 / 2).
Another data set has as its system Trypanosoma brucei. As to the kind of experiment: DNDI: Inhibition of Human African Trypanosomiasis, SBRI 427, in vitro. The class given is functional, organism-based.
A short description of data set [2]: DNDI: Cytotoxicity against L929 mouse fibroblasts, 72 hour. The format is toxicity, cell-based. As to conditions: mouse, L929 mouse fibroblasts.
For data set [3] the following is noted: mouse, microsomes, 1 µM.
Description: DNDI: in vitro intrinsic clearance in mouse liver microsomes at a concentration of 1uM
Data set [4] in a line: DNDI: Solubility in phosphate buffered saline at pH7.4 measured by nephelometry at room temperature (NEPH-RT). As to conditions: pH 7.4. The class given is physicochemical.
Where [5] appears, read: Trypanosoma brucei, SBRI 427, read-out: IC50.

Usually IC50 stands for the concentration needed to halve the response being measured. What is called half-life is the time needed for the level to fall by half in the phase considered. Low readings indicate fast loss, high ones slow loss. What is called solubility (kinetic) is the concentration staying in solution when a stock, usually in DMSO, is diluted into the medium.

Description for in vitro: DNDI: half life in mouse liver microsomes at a concentration of 1uM

Turning to `CCCCCOc1ccc(-c2nc(CNC3[C@H]4C[C@@H]5C[C@@H](C[C@H]3C5)C4)co2)cc1` (some centres undefined), in data set [1], the IC50 at 24 h is over 50 µg/mL. The compound also had a half-life at 1 µM in the data set “in vitro” of 32 min. Besides, the IC50 with Trypanosoma brucei (setting [5]) was 0.3 µg/mL (≈ 0.76 µM). Also, the IC50 at 72 h in data set [2] was under 3.13 µg/mL. Further, the CLint in vitro in data set [3] stood at 27 µL/min/mg.

For the compound `CCc1ccccc1N/C(=N\O)c1ccccc1-c1ccccc1`, the IC50 at 24 h in data set [1] came to 16.3 µg/mL (≈ 51.5 µM). In the data set “in vitro”, this compound returned a half-life at 1 µM of 4 min. Further, the IC50 in the data set with Trypanosoma brucei (setting [5]) was over 5 µg/mL. Also, the CLint in vitro in data set [3] worked out at 209 µL/min/mg.

`CCCOc1ccc(-c2nc(CN[C@@H]3C[C@@H]4C[C@H]([C@H]3C)C4(C)C)co2)cc1` came in with an IC50 at 24 h in data set [1] of 15.7 µg/mL (≈ 42.7 µM). For the same compound, in the data set “in vitro”, the half-life at 1 µM is 28 min. In the data set on Trypanosoma brucei (setting [5]), the IC50 amounted to 0.49 µg/mL (≈ 1.33 µM). Further, the IC50 at 72 h in data set [2] is under 3.13 µg/mL. For the same compound, the CLint in vitro in data set [3] is 30 µL/min/mg.

Compound `FC(F)(F)c1ccc(CNC(c2nc(Cc3ccccc3)c(N3CCOCC3)o2)C2CC2)cc1` (centres undefined) registered a kinetic solubility in data set [4] of 6 µM (≈ 2.83 µg/mL). Also, in the data set with Trypanosoma brucei (setting [5]), the half-maximal inhibitory concentration (IC50) was 4.53 µg/mL (≈ 9.61 µM). In addition, the IC50 at 72 h in data set [2] is over 10 µg/mL.

`O/N=C(\NC1CCCCC1)c1ccc(-c2ccccc2)cc1`: the IC50 at 24 h in data set [1] turned out to be 36 µg/mL (≈ 122 µM). This compound also yielded a half-life at 1 µM in the data set “in vitro” of 3 min. Further, in the data set on Trypanosoma brucei (setting [5]), the IC50 was over 5 µg/mL. Besides, the CLint in vitro in data set [3] turned out to be 280 µL/min/mg.

As to `COc1ccccc1CNC(CCc1ccccc1)c1nc(-c2ccccc2)c(N2CCOCC2)o1` (centres undefined), in “in vitro”, the half-life at 1 µM amounted to 2 min. Moreover, in the data set on Trypanosoma brucei (setting [5]), the IC50 stood at 4.15 µg/mL (≈ 8.58 µM). In data set [2], the IC50 at 72 h was over 10 µg/mL. For the same compound, the CLint in vitro in data set [3] turned out to be 344 µL/min/mg.

The compound `COc1cccc(OC)c1CNCc1coc(-c2ccc(C(C)(C)C)cc2)n1` showed an IC50 at 24 h in data set [1] of 43.2 µg/mL (≈ 114 µM). The compound further had a kinetic solubility in data set [4] of 1 µM (≈ 0.38 µg/mL). The IC50 in the data set on Trypanosoma brucei was 1.43 µg/mL and 0.89 µg/mL and 2.17 µg/mL. In data set [2], this compound yielded an IC50 at 72 h of 2.07 µg/mL (≈ 5.44 µM).

The compound `CCCCCC(C)NCc1coc(-c2ccc(C3CCCCC3)cc2)n1` (centres undefined) yielded a half-life at 1 µM in “in vitro” of 232 min. For the same compound, the IC50 with Trypanosoma brucei (setting [5]) was determined as 0.22 µg/mL (≈ 0.621 µM). It took 0.67 µg/mL (≈ 1.89 µM) to reach half-maximal inhibition in data set [2] (IC50 at 72 h). In addition, the CLint in vitro in data set [3] was 4 µL/min/mg.

In turn, `CCCCCC(C)NCc1coc(-c2ccc(Oc3ccc(OC)cc3)cc2)n1` (centres undefined) showed a half-life at 1 µM in the data set “in vitro” of 34 min. Besides, in the data set on Trypanosoma brucei (setting [5]), the IC50 was 1.29 µg/mL (≈ 3.27 µM). Also, in data set [2], the IC50 at 72 h is 5.61 µg/mL (≈ 14.2 µM). In data set [3], this compound came in with a CLint in vitro of 25 µL/min/mg.

`CC(C)CNC(CCc1ccccc1)c1nc(Cc2ccccc2)c(N2CCCCC2)o1` (centres undefined) gave a half-life at 1 µM in “in vitro” of 3 min. Moreover, the kinetic solubility in data set [4] was 6 µM (≈ 2.59 µg/mL). The IC50 in the data set on Trypanosoma brucei (setting [5]) is over 5 µg/mL. Also, the IC50 at 72 h in data set [2] was over 10 µg/mL. Moreover, the CLint in vitro in data set [3] is 307 µL/min/mg.

`O/N=C(\NC1CCCCC1)c1cccnc1Oc1c(F)cccc1F` gave an IC50 at 24 h in data set [1] of over 50 µg/mL. In the data set “in vitro”, this compound had a half-life at 1 µM of 2 min. Besides, the IC50 with Trypanosoma brucei amounted to 0.48 µg/mL (≈ 1.38 µM); with Trypanosoma brucei (setting [5]), 0.46 µg/mL (≈ 1.32 µM). The half-inhibitory concentration (IC50) at 72 h in data set [2] was over 10 µg/mL. Moreover, in data set [3], the CLint in vitro worked out at 351 µL/min/mg.

On to `O=C(NC1CCCCC1)c1ccccc1-c1ccccc1`, for which the 50% inhibitory concentration (IC50) at 24 h in data set [1] is over 50 µg/mL. This compound also came in with a half-life at 1 µM in the data set “in vitro” of 7 min. In the data set on Trypanosoma brucei (setting [5]), the IC50 was over 5 µg/mL. Moreover, the CLint in vitro in data set [3] is 116 µL/min/mg.

`CCCCCC(C)NCc1coc(-c2ccc(Oc3ccc(Cl)cc3)cc2)n1` (centres undefined) had a half-life at 1 µM in “in vitro” of 313 min. Also, in the data set on Trypanosoma brucei (setting [5]), the IC50 came to 0.34 µg/mL (≈ 0.852 µM). In data set [2], the IC50 at 72 h was found to be 2.07 µg/mL (≈ 5.19 µM). In data set [3], this compound had a CLint in vitro of 3 µL/min/mg.

As to `CCC(C)C(NCc1ccccc1OC)c1nc(-c2ccccc2)c(N2CCOCC2)o1` (centres undefined), in the data set “in vitro”, the half-life at 1 µM was found to be 2 min. This compound displayed a kinetic solubility in data set [4] of 6 µM (≈ 2.61 µg/mL). In addition, in the data set on Trypanosoma brucei (setting [5]), the IC50 came to 4.06 µg/mL (≈ 9.32 µM). For the same compound, the IC50 at 72 h in data set [2] is over 10 µg/mL. In data set [3], this compound showed a CLint in vitro of 440 µL/min/mg.

For the compound `CCCCCC(C)NCc1coc(-c2cc(OC)cc(OC)c2)n1` (centres undefined), in data set [4], the kinetic solubility was found to be 6 µM (≈ 1.99 µg/mL). Further, the IC50 with Trypanosoma brucei (setting [5]) was determined as 1.25 µg/mL (≈ 3.76 µM). In data set [2], this compound came in with an IC50 at 72 h of 4.75 µg/mL (≈ 14.3 µM).

In turn, `CC(C)(C)CNCc1coc(-c2ccc(OCC(C)(C)C)cc2)n1` returned a half-life at 1 µM in “in vitro” of 267 min. Further, in the data set with Trypanosoma brucei (setting [5]), the half-maximal inhibitory concentration (IC50) worked out at 0.42 µg/mL (≈ 1.27 µM). The compound also gave an IC50 at 72 h in data set [2] of 1.35 µg/mL (≈ 4.09 µM). Also, in data set [3], the CLint in vitro is 3 µL/min/mg.

`CCCCCC(C)NCc1coc(-c2ccc(C)c(OC)c2)n1` (centres undefined) showed a half-life at 1 µM in the data set “in vitro” of 10 min. The IC50 in the data set on Trypanosoma brucei (setting [5]) turned out to be 1.6 µg/mL (≈ 5.06 µM). In data set [2], this compound showed an IC50 at 72 h of 5.27 µg/mL (≈ 16.7 µM). This compound also returned a CLint in vitro in data set [3] of 87 µL/min/mg.

With `Cc1ccc(CNC(c2ccccc2)c2nc(Cc3ccccc3)c(N3CCOCC3)o2)cc1` (centres undefined), the kinetic solubility in data set [4] is 6 µM (≈ 2.72 µg/mL). Moreover, the IC50 in the data set with Trypanosoma brucei (setting [5]) was determined as 4.86 µg/mL (≈ 10.7 µM). This compound also showed an IC50 at 72 h in data set [2] of over 10 µg/mL.

`CCc1ccccc1N/C(=N\O)c1ccc(OC)cc1`: in data set [1], the IC50 at 24 h is over 50 µg/mL. In addition, the half-life at 1 µM in “in vitro” was 2 min. Further, the IC50 in the data set with Trypanosoma brucei (setting [5]) was over 5 µg/mL. In data set [3], this compound showed a CLint in vitro of 397 µL/min/mg.
